US10597367B2, “Metabotropic glutamate receptor negative allosteric modulators (NAMs) and uses thereof” (Sanford Burnham Prebys Medical Discovery Institute, priority 2014, dated 2020)
Like-named read-outs stand apart in the source and are kept apart here.

Tests used:
[1] = molecular target: mGlu3 receptor (Rattus norvegicus (Rat), UniProt P31422); assay: mGlu3 in vitro GIRK thallium flux assay; assay type: cell-based; conditions: NAM; test compound incubated 2.5 min before EC80 glutamate; HEK-293 GIRK cells
Experimental: All cell culture reagents were purchased from Invitrogen Corp. (Carlsbad, Calif.) unless otherwise noted. Compound activity at the group II (mGlu2 and mGlu3) mGlus was assessed using thallium flux through GIRK channels. Briefly, cells were plated into 384-well, black-walled, clear-bottomed poly-D-lysine-coated plates at a density of 15,000 cells/20 μL/well in DMEM containing 10% dialyzed FBS, 20 mM HEPES, and 100 units/mL penicillin/streptomycin (assay media). Plated cells were incubated overnight at 37° C. in the presence of 5% CO2. […] Cells were incubated for 1 h at room temperature, and the dye exchanged to assay buffer using an ELX405, leaving 20 μL/well. Test compounds were diluted to 2 times their final desired concentration in assay buffer (0.3% DMSO final concentration). […] Cell plates and compound plates were loaded onto a kinetic imaging plate reader (FDSS 6000 or 7000; Hamamatsu Corporation, Bridgewater, N.J.). Appropriate baseline readings were taken (10 images at 1 Hz; excitation, 470±20 nm; emission, 540±30 nm) and test compounds were added in a 20 μL volume and incubated for either 2.5 min or 60 min as indicated before the addition of 10 μL of thallium buffer with or without agonist. […] Data were analyzed using Excel (Microsoft Corp, Redmond, Wash.). […] Potencies were calculated from fits using a four-point parameter logistic equation. […]

[2] = molecular target: mGlu2 receptor (Rattus norvegicus (Rat), UniProt P31421); assay: mGlu2 in vitro GIRK thallium flux assay; assay type: cell-based; conditions: NAM, HEK-293 GIRK cells
Experimental: All cell culture reagents were purchased from Invitrogen Corp. (Carlsbad, Calif.) unless otherwise noted. Compound activity at the group II (mGlu2 and mGlu3) mGlus was assessed using thallium flux through GIRK channels. Briefly, cells were plated into 384-well, black-walled, clear-bottomed poly-D-lysine-coated plates at a density of 15,000 cells/20 μL/well in DMEM containing 10% dialyzed FBS, 20 mM HEPES, and 100 units/mL penicillin/streptomycin (assay media). Plated cells were incubated overnight at 37° C. in the presence of 5% CO2. […] Cells were incubated for 1 h at room temperature, and the dye exchanged to assay buffer using an ELX405, leaving 20 μL/well. Test compounds were diluted to 2 times their final desired concentration in assay buffer (0.3% DMSO final concentration). […] Cell plates and compound plates were loaded onto a kinetic imaging plate reader (FDSS 6000 or 7000; Hamamatsu Corporation, Bridgewater, N.J.). Appropriate baseline readings were taken (10 images at 1 Hz; excitation, 470±20 nm; emission, 540±30 nm) and test compounds were added in a 20 μL volume and incubated for either 2.5 min or 60 min as indicated before the addition of 10 μL of thallium buffer with or without agonist. After the addition of agonist, data were collected for approximately an additional 2.5 min. Data were analyzed using Excel (Microsoft Corp, Redmond, Wash.). The slope of the fluorescence increase beginning 5 s after thallium/agonist addition and ending 15 s after thallium/agonist addition was calculated, corrected to vehicle and maximal agonist control slope values, and plotted in using either XLfit (ID Business Solutions Ltd) or Prism software (GraphPad Software, San Diego, Calif.) to generate concentration-response curves. Potencies were calculated from fits using a four-point parameter logistic equation. For concentration-response curve experiments, compounds were serially diluted 1:3 into 10 point concentration response curves and were transferred to daughter plates using an Echo acoustic plate reformatter (Labcyte, Sunnyvale, Calif.). Test compounds were applied and followed by EC80 concentrations of glutamate.

[3] = tested on: Male Wistar rats; assay: Forced Swim Test (FST); assay type: in vivo; conditions: rat, FIG. 1
Experimental: Male Wistar rats (Charles River, Hollister, Calif.), weighing 175-225 g (Charles River, Portage, Ind.) used for the forced swim test study were housed in pairs with food and water available ad libitum, except during testing, in a temperature and humidity controlled vivarium (21° C.). Rats were maintained on a 12-hour reverse light-dark cycle with lights on at 6 pm. All experimental procedures occurred during the dark cycle, were approved by the Institutional Animal Care and Use Committee of the Scripps Research Institute, and were in accordance with the Association for the Assessment and Accreditation of Laboratory Animal Care (AAALAC) guidelines. […]
After the habituation swim and 24 hours prior to the test swim, rats were administered one of three doses of a mGlu2/3 NAM, with doses and pretreatment time based on maximal brain penetration as determined by PK studies for each compound. Blood and brain tissue were collected immediately after the FST and the PK properties of each compound were analyzed together with FST behavior. […] Twenty-four hours after their first exposure, the animals were again placed in the swim apparatus for 5 min, and behaviors were monitored from above by video camera for subsequent analysis. The rater of the behavioral patterns was blind with respect to the experimental conditions being scored. […]

[4] = tested on: R6/2 mice; conditions: daily subcutaneous 20 mg/kg (MTD) beginning at 4 weeks; cited from earlier work
[5] = tested on: cultured spinal cord astrocytes; conditions: astrocytes from wild-type and mGlu2 knockout mice, not mGlu3 knockout; cited from earlier work
[6] = tested on: wild-type and mGlu2 knockout mice; conditions: acute 0.5, 1 or 5 mg/kg, i.p.; not in mGlu3 knockout mice; cited from earlier work
[7] = tested on: SOD1G93A mice; conditions: continuous treatment 1 or 5 mg/kg/day; cited from earlier work
[8] = tested on: reserpine-treated rat; conditions: cited from earlier work

mGlu2 receptor, sequence (P31421 19-872): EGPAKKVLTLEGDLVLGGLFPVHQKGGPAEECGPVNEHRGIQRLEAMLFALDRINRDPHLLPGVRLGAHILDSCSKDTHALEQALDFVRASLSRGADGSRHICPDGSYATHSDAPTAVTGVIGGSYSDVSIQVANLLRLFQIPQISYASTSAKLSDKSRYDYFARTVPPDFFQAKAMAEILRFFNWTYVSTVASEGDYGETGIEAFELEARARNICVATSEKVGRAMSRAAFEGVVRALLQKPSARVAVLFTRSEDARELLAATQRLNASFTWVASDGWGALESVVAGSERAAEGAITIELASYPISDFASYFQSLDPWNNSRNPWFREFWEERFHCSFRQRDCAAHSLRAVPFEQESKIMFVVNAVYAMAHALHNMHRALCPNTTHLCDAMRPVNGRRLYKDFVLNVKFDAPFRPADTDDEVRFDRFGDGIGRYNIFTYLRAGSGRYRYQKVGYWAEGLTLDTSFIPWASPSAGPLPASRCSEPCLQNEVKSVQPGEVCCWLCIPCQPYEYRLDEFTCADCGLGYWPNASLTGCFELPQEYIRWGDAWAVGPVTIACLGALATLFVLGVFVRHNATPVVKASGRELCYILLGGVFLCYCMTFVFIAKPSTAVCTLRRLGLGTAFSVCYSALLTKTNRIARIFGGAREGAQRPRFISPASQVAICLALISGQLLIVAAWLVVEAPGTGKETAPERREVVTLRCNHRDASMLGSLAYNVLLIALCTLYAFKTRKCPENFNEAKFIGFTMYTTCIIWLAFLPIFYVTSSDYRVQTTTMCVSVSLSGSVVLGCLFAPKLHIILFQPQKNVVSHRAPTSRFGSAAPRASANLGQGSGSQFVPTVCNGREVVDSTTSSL
mGlu3 receptor, sequence (P31422 23-879): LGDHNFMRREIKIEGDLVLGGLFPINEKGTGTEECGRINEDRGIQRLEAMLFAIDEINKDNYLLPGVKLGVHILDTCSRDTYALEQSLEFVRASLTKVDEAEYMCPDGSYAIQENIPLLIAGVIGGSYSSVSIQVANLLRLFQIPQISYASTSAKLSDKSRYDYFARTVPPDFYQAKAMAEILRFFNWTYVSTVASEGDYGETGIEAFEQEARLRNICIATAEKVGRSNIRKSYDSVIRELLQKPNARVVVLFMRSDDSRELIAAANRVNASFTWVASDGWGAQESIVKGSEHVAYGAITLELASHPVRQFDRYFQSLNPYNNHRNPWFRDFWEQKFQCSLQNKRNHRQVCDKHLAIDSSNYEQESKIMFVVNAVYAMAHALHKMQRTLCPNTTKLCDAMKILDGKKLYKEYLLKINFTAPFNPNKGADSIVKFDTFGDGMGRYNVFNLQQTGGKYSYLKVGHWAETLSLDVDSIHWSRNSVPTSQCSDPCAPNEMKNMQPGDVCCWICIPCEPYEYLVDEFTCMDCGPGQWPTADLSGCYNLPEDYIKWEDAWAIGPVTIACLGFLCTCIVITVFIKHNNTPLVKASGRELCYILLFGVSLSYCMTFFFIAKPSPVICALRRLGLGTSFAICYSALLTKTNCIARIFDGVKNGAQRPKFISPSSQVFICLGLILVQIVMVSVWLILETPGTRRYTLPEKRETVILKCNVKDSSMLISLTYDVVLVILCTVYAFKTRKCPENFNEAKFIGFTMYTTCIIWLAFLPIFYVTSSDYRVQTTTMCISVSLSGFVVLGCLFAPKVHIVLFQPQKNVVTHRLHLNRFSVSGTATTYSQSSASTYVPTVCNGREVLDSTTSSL

## Cc1cc2c(cc1C(F)(F)F)NC(=O)CC(c1cccc(Oc3ccccc3)c1)N2 (stereo not shown) [Example 177, 7-Methyl-4-(3-phenoxyphenyl)-8-(trifluoromethyl)-4,5-dihydro-1H-benzo[b][1,4]diazepin-2(3H)-one]
[1]
  EC50: > 10 µM
[2]; test compound incubated 2.5 min before EC80 glutamate, read-out: mGlu2 EC50 (μM) (2.5 min)
  EC50: > 10 µM
[2]; read-out: mGlu2 EC50 (μM) (60 min), test compound incubated 60 min before EC80 glutamate
  EC50: > 10 µM

## O=C1CC(c2ccnc(Br)c2)=Nc2ccc(C(F)(F)F)cc2N1 [Example 191, 4-(2-Bromopyridin-4-yl)-8-(trifluoromethyl)-1,3-dihydro-2H-benzo[b][1,4]diazepin-2-one]
[3]
  antidepressant activity in the Forced Swim Test (immobility, swimming): antidepressant activity by decreasing immobility and increasing swimming

## N[C@@]1(C(=O)O)CO[C@H]2[C@H](C(=O)O)[C@H]21 [LY379268]
[4]
  phenotype in R6/2 mice: dramatically improves the phenotype
[5]
  GDNF levels in astrocytes: enhanced GDNF levels
[6]
  spinal cord GDNF levels: enhanced spinal cord GDNF levels
[7]
  neurological disability in SOD1G93A mice: beneficial effect on neurological disability
[8]; 0.1, 1, 10 mg/kg ip
  reserpine-induced akinesia after systemic administration: did not reverse reserpine-induced akinesia
[8]; 1, 5, 10, 20 nmol/2 μl icv, reserpine (5 mg/kg ip)-treated rat
  locomotor activity after intracerebroventricular administration: dose-dependent increase in locomotor activity
